Holding throughout (type): cell-based
Conditions in all cases: Table 7; cAMP formation
On the technique in general: cAMP levels reflect the balance of adenylyl cyclase and phosphodiesterase activity.

For assay [1], the target named is T1, human glucagon receptor (hGLUC R) (Homo sapiens, UniProt P47871).
T1 construct: expressed in transfected cells
Briefly: cAMP response of HEK-293 cells stably expressing human glucagon receptor (HTRF). The essentials:
(§1)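 HEK-293 cells stably expressing the receptor were resuspended at 400000 cells/ml in HBSS/20 mM HEPES/0.1% BSA buffer with 2 mM IBMX. Cells were stimulated with compound for 30 min at room temperature. Intracellular cAMP was measured by HTRF.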
A general note: Time-resolved FRET reads energy transfer from a long-lived donor to a nearby acceptor.

In assay [2] the target is T2, human GLP-1 receptor (hGLP-1 R) (Homo sapiens, UniProt P43220).
T2 construct: expressed in transfected cells
Briefly: cAMP response of HEK-293 cells stably expressing human GLP-1 receptor (HTRF). The essentials:
as §1

Assay [3] deals with T3, human GIP receptor (hGIP R) (Homo sapiens, UniProt P48546).
T3 construct: expressed in transfected cells
T3 sequence (P48546 22-466): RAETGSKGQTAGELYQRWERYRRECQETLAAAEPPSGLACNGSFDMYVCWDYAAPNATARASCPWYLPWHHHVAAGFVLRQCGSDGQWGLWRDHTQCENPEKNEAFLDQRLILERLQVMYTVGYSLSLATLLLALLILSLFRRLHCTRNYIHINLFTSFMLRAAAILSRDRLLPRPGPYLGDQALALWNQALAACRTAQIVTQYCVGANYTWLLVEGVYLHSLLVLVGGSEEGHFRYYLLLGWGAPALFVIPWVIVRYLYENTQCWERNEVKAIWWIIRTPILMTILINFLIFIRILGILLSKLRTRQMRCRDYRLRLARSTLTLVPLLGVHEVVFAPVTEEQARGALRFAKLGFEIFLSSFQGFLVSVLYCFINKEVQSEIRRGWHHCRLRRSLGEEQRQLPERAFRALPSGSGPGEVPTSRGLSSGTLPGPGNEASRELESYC
Briefly: cAMP response of HEK-293 cells stably expressing human GIP receptor (HTRF). The essentials: as §1

As a reminder, the EC50 is the midpoint of the concentration-response curve. Low values mean greater potency, high ones weaker potency.

*1 amine or outer side, *2 acyl side, *3 side chain or, on linkers, in order; H or OH if unused. Where a SMILES comes first, the peptide text is derived from it. Side-chain parts run from the residue outwards. [ ]: non-standard residue; d: D form. The star is where a group is joined. γGlu = O=C(O)[C@H](CCC(=O)[*:2])N[*:1]; Palmitoyl = CCCCCCCCCCCCCCCC(=O)*; Aib = CC(C)(N)C(=O)O

T1 sequence (P47871 26-477): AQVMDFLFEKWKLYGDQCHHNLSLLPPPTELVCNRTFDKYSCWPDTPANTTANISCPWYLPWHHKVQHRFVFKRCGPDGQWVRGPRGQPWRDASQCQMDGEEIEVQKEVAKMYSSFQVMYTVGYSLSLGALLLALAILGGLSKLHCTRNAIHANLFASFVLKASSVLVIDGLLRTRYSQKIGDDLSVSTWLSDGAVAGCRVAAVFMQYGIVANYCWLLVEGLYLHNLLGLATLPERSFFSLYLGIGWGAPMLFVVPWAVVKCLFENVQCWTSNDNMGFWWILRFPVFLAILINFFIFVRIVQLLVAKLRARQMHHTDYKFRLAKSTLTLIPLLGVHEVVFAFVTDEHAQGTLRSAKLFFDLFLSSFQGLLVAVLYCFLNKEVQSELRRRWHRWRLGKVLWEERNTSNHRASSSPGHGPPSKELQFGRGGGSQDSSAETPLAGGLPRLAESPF
T2 sequence (P43220 24-463): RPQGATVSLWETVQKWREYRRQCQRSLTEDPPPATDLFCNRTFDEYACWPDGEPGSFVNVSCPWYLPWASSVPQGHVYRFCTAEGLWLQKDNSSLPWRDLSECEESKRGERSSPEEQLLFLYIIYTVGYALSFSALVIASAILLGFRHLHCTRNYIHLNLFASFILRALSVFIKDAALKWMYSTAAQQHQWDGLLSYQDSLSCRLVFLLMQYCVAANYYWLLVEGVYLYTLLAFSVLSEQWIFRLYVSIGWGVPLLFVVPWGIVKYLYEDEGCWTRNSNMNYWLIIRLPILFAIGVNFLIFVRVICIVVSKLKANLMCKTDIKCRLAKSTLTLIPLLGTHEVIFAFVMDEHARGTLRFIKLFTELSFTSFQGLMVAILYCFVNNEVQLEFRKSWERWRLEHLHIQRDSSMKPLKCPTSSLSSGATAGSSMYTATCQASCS

Take `CCCCCCCCCCCCCCCC(=O)N[C@@H](CCC(=O)NCCCC[C@H](NC(=O)[C@H](CCC(N)=O)NC(=O)[C@@H](NC(=O)[C@H](CO)NC(=O)[C@H](CC(C)C)NC(=O)[C@H](CC(=O)O)NC(=O)[C@H](CO)NC(=O)[C@@H](NC(=O)[C@H](Cc1ccccc1)NC(=O)[C@@H](NC(=O)CNC(=O)[C@H](CCC(N)=O)NC(=O)C(C)(C)NC(=O)[C@@H](N)Cc1ccc(O)cc1)[C@@H](C)O)[C@@H](C)O)[C@@H](C)CC)C(=O)N[C@@H](CCC(=O)O)C(=O)N[C@@H](CCCCN)C(=O)N[C@@H](C)C(=O)N[C@@H](C)C(=O)N[C@@H](C)C(=O)NC(C)(C)C(=O)N[C@@H](CCC(=O)O)C(=O)N[C@@H](Cc1ccccc1)C(=O)N[C@H](C(=O)N[C@@H](CCC(=O)O)C(=O)N[C@@H](Cc1c[nH]c2ccccc12)C(=O)N[C@@H](CC(C)C)C(=O)N[C@@H](CCCCN)C(=O)N[C@@H](CC(N)=O)C(=O)N[C@H](C(=O)NCC(=O)N1CCC[C@H]1C(=O)N[C@@H](CO)C(=O)N[C@@H](CO)C(=O)NCC(=O)N[C@@H](C)C(=O)N1CCC[C@H]1C(=O)N1CCC[C@H]1C(=O)N1CCC[C@H]1C(=O)N[C@@H](CO)C(N)=O)[C@@H](C)O)[C@@H](C)CC)C(=O)O` [SEQ ID NO: 12, Y-Aib-Q-G-T-F-T-S-D-L-S-I-Q-K(yE-x53)-E-K-A-A-A-Aib-EFIEWLKNTGPSSGAPPPSN H2] (H-Y[Aib]QGTFTSDLSIQK([γGlu-Palmitoyl])EKAAA[Aib]EFIEWLKNTGPSSGAPPPS-NH2): the EC50 in assay [1] came out at 0.139 nM; in assay [2] it was 0.0055 nM; in assay [3], 0.008 nM.

`CCCCCCCCCCCCCCCC(=O)N[C@@H](CCC(=O)NCCCC[C@H](NC(=O)[C@H](CCC(N)=O)NC(=O)[C@@H](NC(=O)[C@H](CO)NC(=O)[C@H](CC(C)C)NC(=O)[C@H](CC(=O)O)NC(=O)[C@H](CO)NC(=O)[C@@H](NC(=O)[C@H](Cc1ccccc1)NC(=O)[C@@H](NC(=O)CNC(=O)[C@H](CCC(N)=O)NC(=O)C(C)(C)NC(=O)[C@@H](N)Cc1ccc(O)cc1)[C@@H](C)O)[C@@H](C)O)[C@@H](C)CC)C(=O)N[C@@H](CC(=O)O)C(=O)N[C@@H](CO)C(=O)N[C@H](C(=O)N[C@@H](C)C(=O)N[C@@H](C)C(=O)N[C@@H](CCC(N)=O)C(=O)N[C@@H](CC(=O)O)C(=O)N[C@@H](Cc1ccccc1)C(=O)N[C@H](C(=O)N[C@@H](CCC(=O)O)C(=O)N[C@@H](Cc1c[nH]c2ccccc12)C(=O)N[C@@H](CC(C)C)C(=O)N[C@@H](CCCCN)C(=O)N[C@@H](C)C(=O)NCC(=O)NCC(=O)N1CCC[C@H]1C(=O)N[C@@H](CO)C(=O)N[C@@H](CO)C(=O)NCC(=O)N[C@@H](C)C(=O)N1CCC[C@H]1C(=O)N1CCC[C@H]1C(=O)N1CCC[C@H]1C(=O)N[C@@H](CO)C(N)=O)[C@@H](C)CC)[C@@H](C)CC)C(=O)O` [SEQ ID NO: 49, Y-Aib-Q-G-T-F-T-S-D-L-S-I-Q-K(yE-x53)-DSIAAQDFIEWLKAGGPSSGAPPPS-NH2] (H-Y[Aib]QGTFTSDLSIQK([γGlu-Palmitoyl])DSIAAQDFIEWLKAGGPSSGAPPPS-NH2): the values for the EC50 in assay [1], in assay [2] and in assay [3] were 0.195 nM, 0.0172 nM and 0.0456 nM, respectively.

Regarding `CCCCCCCCCCCCCCCC(=O)N[C@@H](CCC(=O)NCCCC[C@H](NC(=O)[C@H](CCC(N)=O)NC(=O)[C@@H](NC(=O)[C@H](CO)NC(=O)[C@H](CC(C)C)NC(=O)[C@H](CC(=O)O)NC(=O)[C@H](CO)NC(=O)[C@@H](NC(=O)[C@H](Cc1ccccc1)NC(=O)[C@@H](NC(=O)CNC(=O)[C@H](CCC(N)=O)NC(=O)C(C)(C)NC(=O)[C@@H](N)Cc1ccc(O)cc1)[C@@H](C)O)[C@@H](C)O)[C@@H](C)CC)C(=O)N[C@@H](CCC(=O)O)C(=O)N[C@@H](CCCCN)C(=O)N[C@@H](CC(C)C)C(=O)N[C@@H](C)C(=O)N[C@@H](C)C(=O)NC(C)(C)C(=O)N[C@@H](CCC(=O)O)C(=O)N[C@@H](Cc1ccccc1)C(=O)N[C@H](C(=O)N[C@@H](CCC(=O)O)C(=O)N[C@@H](Cc1c[nH]c2ccccc12)C(=O)N[C@@H](CC(C)C)C(=O)N[C@@H](CCCCN)C(=O)N[C@@H](CC(N)=O)C(=O)N[C@H](C(=O)NCC(=O)N1CCC[C@H]1C(=O)N[C@@H](CO)C(=O)N[C@@H](CO)C(=O)NCC(=O)N[C@@H](C)C(=O)N1CCC[C@H]1C(=O)N1CCC[C@H]1C(=O)N1CCC[C@H]1C(=O)N[C@@H](CO)C(N)=O)[C@@H](C)O)[C@@H](C)CC)C(=O)O` [SEQ ID NO: 8, Y-Aib-Q-G-T-F-T-S-D-L-S-I-Q-K(yE-x53)-E-K-L-A-A-Aib-E-F-I-E-W-L-K-N-T-G-P-S-S-G-A-P-P-P-S-NH2] (H-Y[Aib]QGTFTSDLSIQK([γGlu-Palmitoyl])EKLAA[Aib]EFIEWLKNTGPSSGAPPPS-NH2), the EC50 in assay [1] was found to be 0.803 nM; in assay [2], 0.0087 nM; in assay [3], 0.026 nM.

Take `CCCCCCCCCCCCCCCC(=O)N[C@@H](CCC(=O)NCCCC[C@H](NC(=O)[C@H](CCC(N)=O)NC(=O)[C@@H](NC(=O)[C@H](CO)NC(=O)[C@H](CC(C)C)NC(=O)[C@H](CC(=O)O)NC(=O)[C@H](CO)NC(=O)[C@@H](NC(=O)[C@H](Cc1ccccc1)NC(=O)[C@@H](NC(=O)CNC(=O)[C@H](CCC(N)=O)NC(=O)C(C)(C)NC(=O)[C@@H](N)Cc1ccc(O)cc1)[C@@H](C)O)[C@@H](C)O)[C@@H](C)CC)C(=O)N[C@@H](CC(=O)O)C(=O)N[C@@H](CCCCN)C(=O)N[C@@H](CCCNC(=N)N)C(=O)N[C@@H](C)C(=O)N[C@@H](C)C(=O)N[C@@H](CCC(N)=O)C(=O)N[C@@H](CC(=O)O)C(=O)N[C@@H](Cc1ccccc1)C(=O)N[C@H](C(=O)N[C@@H](CCC(=O)O)C(=O)N[C@@H](Cc1c[nH]c2ccccc12)C(=O)N[C@@H](CC(C)C)C(=O)N[C@@H](CCCCN)C(=O)N[C@@H](CCCCN)C(=O)NCC(=O)NCC(=O)N1CCC[C@H]1C(=O)N[C@@H](CO)C(=O)N[C@@H](CO)C(=O)NCC(=O)N[C@@H](C)C(=O)N1CCC[C@H]1C(=O)N1CCC[C@H]1C(=O)N1CCC[C@H]1C(=O)N[C@@H](CO)C(N)=O)[C@@H](C)CC)C(=O)O` [SEQ ID NO: 44, Y-Aib-Q-G-T-F-T-S-D-L-S-I-Q-K(yE-x53)-DKRAAQDFIEWLKKGGPSSGAPPPS-NH2] (H-Y[Aib]QGTFTSDLSIQK([γGlu-Palmitoyl])DKRAAQDFIEWLKKGGPSSGAPPPS-NH2): the EC50 in assay [1] came to 0.0552 nM; in assay [2], 0.0097 nM; in assay [3], 0.0255 nM.

For `CCCCCCCCCCCCCCCC(=O)N[C@@H](CCC(=O)NCCCC[C@H](NC(=O)[C@H](CCC(N)=O)NC(=O)[C@@H](NC(=O)[C@H](CO)NC(=O)[C@H](CC(C)C)NC(=O)[C@H](CC(=O)O)NC(=O)[C@H](CO)NC(=O)[C@@H](NC(=O)[C@H](Cc1ccccc1)NC(=O)[C@@H](NC(=O)CNC(=O)[C@H](CCC(N)=O)NC(=O)C(C)(C)NC(=O)[C@@H](N)Cc1ccc(O)cc1)[C@@H](C)O)[C@@H](C)O)[C@@H](C)CC)C(=O)N[C@@H](CCC(=O)O)C(=O)N[C@@H](CCCCN)C(=O)N[C@@H](CCCNC(=N)N)C(=O)N[C@@H](CC(C)C)C(=O)N[C@@H](C)C(=O)NC(C)(C)C(=O)N[C@@H](CCC(=O)O)C(=O)N[C@@H](Cc1ccccc1)C(=O)N[C@H](C(=O)N[C@@H](CCC(=O)O)C(=O)N[C@@H](Cc1c[nH]c2ccccc12)C(=O)N[C@@H](CC(C)C)C(=O)N[C@@H](CCCCN)C(=O)N[C@@H](CC(N)=O)C(=O)N[C@H](C(=O)NCC(=O)N1CCC[C@H]1C(=O)N[C@@H](CO)C(=O)N[C@@H](CO)C(=O)NCC(=O)N[C@@H](C)C(=O)N1CCC[C@H]1C(=O)N1CCC[C@H]1C(=O)N1CCC[C@H]1C(=O)N[C@@H](CO)C(N)=O)[C@@H](C)O)[C@@H](C)CC)C(=O)O` [SEQ ID NO: 19, Y-Aib-Q-G-T-F-T-S-D-L-S-I-Q-K(yE-x53)-E-K-R-L-A-Aib-E-F-I-E-W-L-K-N-T-G-P-S-S-G-A-P-P-P-S-NH2] (H-Y[Aib]QGTFTSDLSIQK([γGlu-Palmitoyl])EKRLA[Aib]EFIEWLKNTGPSSGAPPPS-NH2), the EC50 in assay [1] was found to be 0.137 nM; in assay [2], 0.0085 nM; in assay [3] it was 0.0915 nM.

Values taken from US20140213513A1 (Sanofi, priority 2012, published 2014).
